# According to US5270325A, “P-hydroxy phenone derivatives used in the treatment of cardiac arrhythmia” (BASF Aktiengesellschaft, priority 1988, dated 1993):
# Experiments:
# QT interval = assay: Class III antiarrhythmic action in guinea-pigs after intravenous administration (increase in the QT interval, ECG); assay type: in vivo, Pirbright white guinea-pigs; settings: Cavia porcellus, anesthetized (urethane) guinea-pigs, ED 20% from linear relation between log dose and relative increase in the QT interval
# Description: The experimental animals are male and female Pirbright white guinea-pigs weighing from 300 to 500 g. They are anesthetized with 1.5 g/kg urethane i.p. The substances are administered intravenously. The ECG conduction times and the heart rate are measured from a recording from extremity lead II. The measured variables are the QT and PQ intervals and the heart rate. 4 to 6 animals are used per dose. The criterion of a class III action is an increase in the QT interval compared with the values before administration of the substance. An increase in PQ and a large decrease in the heart rate serve as exclusion criteria. The ED 20% is calculated from the linear relation between log dose (mg/kg) of the substance and the relative increase in the QT interval (in %).
# arrhythmias = settings: literature: Circulation 68 (1983) 88-94; Am. Heart J. 109 (1985) 949-958; J. Clin. Pharmacol. 27 (1987) 708; cited from earlier work
SMILES,ED (20%) (QT interval) [mg/kg],acting against arrhythmias which are otherwise resistant to therapy (arrhythmias)
"Cc1cc(C(=O)/C=C/c2ccccc2C(F)(F)F)cc(C)c1OCCN1CCCC1.O=C(O)/C=C/C(=O)O [Example 5, 3',5'-Dimethyl-4'-[2-(1-pyrrolidinyl)ethoxy]-2-trifluoromethylchalcone fumarate]",1,–
CCCCc1oc2ccccc2c1C(=O)c1cc(I)c(OCCN(CC)CC)c(I)c1 [amiodarone],–,"acting against arrhythmias which are otherwise resistant to therapy, especially reentry arrhythmias"
"Cc1ccsc1/C=C/C(=O)c1cc(C)c(OCCN2CCCC2)c(C)c1.O=C(O)/C=C/C(=O)O [Example 4, 3,5-Dimethyl-4-[2-(1-pyrrolidinyl)ethoxy]phenyl E-2-(3-methyl-2-thienyl)ethenyl ketone fumarate]",1.2,–
"Cc1cc(C(=O)/C=C/c2cccn2C)cc(C)c1OCCN1CCCC1.O=C(O)/C=C/C(=O)O [Example 2, 3,5-Dimethyl-4-[2-(1-pyrrolidinyl)ethoxy]phenyl E-2-(1-methyl-2-pyrrolyl)ethenyl ketone fumarate]",1.1,–
"CC(C)NCC(O)c1ccc(NS(C)(=O)=O)cc1 (single isomer, unassigned) [D-Sotalol]",3.6,"acting against arrhythmias which are otherwise resistant to therapy, especially reentry arrhythmias"
